Tested on: normal human dermal fibroblast cultures
Experiment: Effect on collagen synthesis: incorporation of radioactive proline into fibroblast cultures
Format: cell-based
Conditions: for tritiated proline incorporated, cpm (counts per minute): untreated cells 19261 cpm; for tritiated proline incorporation, % relative to untreated cells: untreated cells = 100
Experimental: The study is carried out by measuring the incorporation of radioactive proline into normal human dermal fibroblast cultures. The fibroblast cultures are prepared according to the standard methods of cell culturing, i.e. in MEM/M199 medium sold by the company Gibco, in the presence of sodium bicarbonate (1.87 mg/ml), L-glutamine (2 mM), penicillin (50 IU/ml) and 10% foetal calf serum (Gibco). The test is carried out on cell cultures at 80% confluence on 24-well plates. Cinnamic acid, at a concentration of 10^−4M is placed in contact with the cells for 48 hours. Labelling with tritiated proline (L-[2,3-^3H]-proline sold by Amersham, 33 μCi/ml) is carried out for 24 hours. The level of tritiated proline incorporated is measured at the end of the test by acidic precipitation of the proteins on filters and counting by liquid scintillation. The results are assessed relative to a control consisting of cells which have not been treated with cinnamic acid. A positive control (20 μg/ml of vitamin C), which is known to stimulate collagen synthesis, and a negative control (10^−6M retinoic acid), which is known to inhibit collagen synthesis, are introduced into the test by way of reference.

[1] = negative control, 10^-6 M retinoic acid
[2] = cinnamic acid 10^-4 M, 48 hours contact, 24 hours labelling
[3] = positive control, 20 μg/ml of vitamin C

Question: `CC1=C(/C=C/C(C)=C/C=C/C(C)=C/C(=O)O)C(C)(C)CCC1` [Retinoic acid, retinoic acid] was tested. Which “tritiated proline incorporated, cpm (counts per minute)” value [1] did it give?
Answer: 13160 cpm

Question: What about the “tritiated proline incorporation, % relative to untreated cells” value [1] of the same compound?
Answer: 68%

Question: Which results are given for `O=C(O)C=Cc1ccccc1` [Cinnamic acid]?
Answer: incorporation of proline into collagen (collagen neosynthesis), result in words (cinnamic acid 10^-4 M, 48 hours): significantly stimulates the incorporation of proline into collagen; tritiated proline incorporated, cpm (counts per minute) [2]: 26209 cpm; tritiated proline incorporation, % relative to untreated cells [2]: 136%

Question: For `O=C1O[C@H]([C@@H](O)CO)C(O)=C1O` [Vitamin C, vitamin C], which “tritiated proline incorporated, cpm (counts per minute)” value [3] is on record?
Answer: 40344 cpm

Question: What about the “tritiated proline incorporation, % relative to untreated cells” value [3] of the same compound?
Answer: 209%

Reference: patent US20010046509A1, “Use of cinnamic acid or of its derivatives in a cosmetic firming composition” (priority 1997, published 2001)
